The text below walks through data of patent publication US20260022089A1, “QUINONE-DERIVED COMPOUNDS AND USE THEREOF AGAINST LEISHMANIA SPP” (Universidad de la Laguna, priority 2022, published 2026).

The test system of data set [1] is Leishmania amazonensis promastigotes. The data set can be described thus: Leishmanicidal activity, alamarBlue fluorescence, 72 hours incubation with promastigotes. As to conditions: for SI (CC50/IC50): ratio of macrophage CC50 to L. amazonensis IC50. The format is cell-based. On the technique in general: The colour change of resazurin is a common sign of viable cells or microbes.

Data set [2] is described as follows: Toxicity against mouse cells, alamarBlue assay, 24 hours. The format is cell-based. As to conditions: murine macrophages, read-out: Macrophage Toxicity CC50. How it is done: To assess toxicity, all compounds were evaluated against mouse cells for 24 hours by means of the alamarBlue assay. […] The higher the value of CC50, the greater the amount of compound required to damage mouse cells, therefore, the lower the toxicity of the compound.

The mark [3] stands for this setting: Leishmania amazonensis, promastigotes, 72 hours, alamarBlue, read-out: L. amazonensis IC50.

Values after ≈ are worked out from the molar mass of the structure shown. Read-outs that look alike come from different tables or passages of the source.

A word on the IC50: it is the concentration needed to halve the response being measured. Broadly, the CC50 is the concentration giving 50% cytotoxicity. With `CCC(C)(CC)C1=CC(=O)C(C)=CC1=O` [SG-011, 2-methyl-5-(3-methylpentan-3-yl)cyclohexa-2,5-diene-1,4-dione], the IC50 in data set [1] (setting [3]) was 0.89 ± 0.06 µg/mL (≈ 4.31 µM). Also, the “SI (CC50/IC50)” value in data set [1] turned out to be 13.80. For the same compound, the CC50 at 24 h in data set [2] is 12.3 ± 0.77 µg/mL (≈ 59.5 µM).

For the compound `CC1=CC(=O)C(C2CCCC2)=CC1=O` [SG-005, 2-cyclopentyl-5-methylcyclohexa-2,5-diene-1,4-dione], the IC50 in data set [1] (setting [3]) was determined as 0.13 ± 0.03 µg/mL (≈ 0.683 µM). In addition, in data set [1], the “SI (CC50/IC50)” value is listed as 5.50. In addition, the CC50 at 24 h in data set [2] came to 0.72 ± 0.01 µg/mL (≈ 3.78 µM).

Consider `CC1=CC(=O)C(C2CCCCC2)=CC1=O` [SG-008, 2-cyclohexyl-5-methylcyclohexa-2,5-diene-1,4-dione], for which the IC50 in data set [1] (setting [3]) was 0.06 ± 0.01 µg/mL (≈ 0.294 µM). For the same compound, the “SI (CC50/IC50)” value in data set [1] is recorded as 42.50. The CC50 at 24 h in data set [2] was 2.55 ± 0.2 µg/mL (≈ 12.5 µM).

Take `CC1=CC(=O)C(C2CCCCCC2)=CC1=O` [SG-013, 2-cycloheptyl-5-methylcyclohexa-2,5-diene-1,4-dione]: in data set [1] (setting [3]), the IC50 was 0.09 µg/mL (≈ 0.412 µM). In data set [1], the “SI (CC50/IC50)” value worked out at 7.10. Besides, in data set [2], the CC50 at 24 h stood at 0.92 ± 0.05 µg/mL (≈ 4.21 µM).

Take `CCC(C)(C)C1=CC(=O)C(C)=CC1=O` [SG-010, 2-methyl-5-(tert-pentyl)cyclohexa-2,5-diene-1,4-dione]: the IC50 in data set [1] (setting [3]) worked out at 0.12 ± 0.02 µg/mL (≈ 0.624 µM). For the same compound, the “SI (CC50/IC50)” value in data set [1] turned out to be 37.50. The leishmanicidal activity result in data set [1] (statement in words) is on record as “shows leishmanicidal activity”. The CC50 at 24 h in data set [2] was found to be 4.51 ± 0.47 µg/mL (≈ 23.5 µM).

Turning to `CC1=CC(=O)C=C(C2CCCC2)C1=O` [SG-003, 2-cyclopentyl-6-methylcyclohexa-2,5-diene-1,4-dione], in data set [1] (setting [3]), the IC50 was 0.34 ± 0.01 µg/mL (≈ 1.79 µM). In addition, the “SI (CC50/IC50)” value in data set [1] is on record as 13.30. In addition, the CC50 at 24 h in data set [2] was found to be 4.53 ± 0.9 µg/mL (≈ 23.8 µM).

Take `CCCCCCCCCCCCCCCCOP(=O)([O-])OCC[N+](C)(C)C` [Miltefosine, miltefosine, reference compound]: in data set [1], the IC50 was found to be 2.64 µg/mL (≈ 6.48 µM) and the “SI (CC50/IC50)” value is given as 11.14. Also, in data set [1] (Leishmania amazonensis, read-out: IC50), the IC50 amounted to 2.64 µg/mL (≈ 6.48 µM). Further, the CC50 at 24 h in data set [2] was found to be 29.4 ± 1.25 µg/mL (≈ 72.2 µM).

`CC1=CC(=O)C=C(C2CCCCCC2)C1=O` [SG-014, 2-cycloheptyl-6-methylcyclohexa-2,5-diene-1,4-dione]: in data set [1] (setting [3]), the IC50 was found to be 0.7 ± 0.02 µg/mL (≈ 3.21 µM). The “SI (CC50/IC50)” value in data set [1] was determined as 24.20. The CC50 at 24 h in data set [2] is 8.95 ± 1.75 µg/mL (≈ 41 µM).

Take `CC1=CC(=O)C(C23CC4CC(CC(C4)C2)C3)=CC1=O` [SG-012, 2-((3r,5r,7r)-adamantane-1-yl)-5-methylcyclohexa-2,5-diene-1,4-dione]: the IC50 in data set [1] (setting [3]) is 0.08 ± 0.01 µg/mL (≈ 0.312 µM). In data set [1], the “SI (CC50/IC50)” value is on record as 9.75. For the same compound, the CC50 at 24 h in data set [2] was 0.78 ± 0.02 µg/mL (≈ 3.04 µM).

Take `CC1=CC(=O)C=C(C2CCCCC2)C1=O` [SG-007, 2-cyclohexyl-6-methylcyclohexa-2,5-diene-1,4-dione]: in data set [1] (setting [3]), the IC50 was 0.07 ± 0.02 µg/mL (≈ 0.343 µM). Besides, in data set [1], the “SI (CC50/IC50)” value was 7.40. In data set [2], the CC50 at 24 h turned out to be 0.52 ± 0.09 µg/mL (≈ 2.55 µM).
